Measurements reported in patent publication US11851391B2, “Antifungal compounds and methods of forming the same” (University of Kentucky Research Foundation, priority 2018, dated 2023).
“Also recorded” adds a separate entry of the source.

What was measured:
[1] = system: various yeast strains and filamentous fungi (strains A-M); experiment: Antifungal activity over the whole panel (summary of MIC data); type: cell-based, Candida and Aspergillus strains; conditions: over the fungal strains tested, based on MIC data of Table 1
Outline: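 Yeasts (A–J) followed CLSI M27-A3 broth microdilution at 2–4×10^3 CFU/mL in RPMI 1640 with DMSO <1.25%. Aspergillus (K–M) followed CLSI M38-A2 with spores at 5×10^5 CFU/mL, 48 h at 35 °C. MIC is the lowest concentration giving complete growth inhibition (MIC-0), tested in triplicate.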

[2] = system: human bronchus normal cell line BEAS-2B; experiment: In vitro cytotoxicity assay (resazurin); type: cell-based; conditions: 24 h
Protocol: The human bronchus normal cell line BEAS-2B (ATCC CRL-9609) and the human lung carcinoma cell line A549 (ATCC CRL-185) were kind gifts from the laboratories of Dr. Matthew S. Gentry (University of Kentucky, Lexington, KY, USA) and Dr. David K. Orren (University of Kentucky, Lexington, KY, USA). The mammalian cells were grown in Dulbecco's Modified Eagle's Medium (DMEM) (from ATCC) with 10% fetal bovine serum (FBS) (from ATCC) and 1% Pen/Strep (from ATCC). Cell lines were cultured at 37° C. with 5% CO2 and passaged by trypsinization with 0.05% trypsin:0.53 mM EDTA (from ATCC). Cell confluency was determined by using a Nikon Eclipse TS100 microscope (Minato, Tokyo, Japan).
Cytotoxicity assays were performed as previously described with slight modifications. A549 and BEAS-2B cells were first thawed from stocks and grown. The confluent cells were transferred to a 96-well microtiter plates at density of 3000 cells/well. The 96-well plates were incubated at 37° C. with 5% CO2 overnight. […] The stock solutions were serially diluted in 1.5 mL eppendorf tubes to achieve concentrations of 31-0.12 mg/mL. 1 μL of these 1000× compound stock solutions was then added to 999 μL of DMEM medium in 1.5 mL eppendorf tubes to obtain final concentrations of 31-0.12 μg/mL. […] The 96-well plates were further incubated for 24 h at 37° C. with 5% CO2. To evaluate cell survival, each well was treated with 10 μL (25 mg/L) of resazurin sodium salt (Sigma-Aldrich, St. Louis, MO, USA) and incubated for another 6 h. Metabolically active cells can convert resazurin to the highly fluorescent dye, resorufin, and be detected at A560 excitation and A590 emission using a SpectraMax M5 plate reader (Molecular Devices, San Jose, CA, USA). […] The percentage survival rates were calculated by using the following formula: % cell survival=[(fluorescence of sample)−(fluorescence of background)]×100/[(fluorescence of negative control)−(fluorescence of background)]. Experiments were done in duplicate.

| SMILES | antifungal activity (in words) [1] | toxicity (in words) ([2]; BEAS-2B at 15.5 μg/mL) | toxicity (in words) ([2]; BEAS-2B at 31 μg/mL) |
| --- | --- | --- | --- |
| Fc1cccc(N/N=C/c2ccc(-c3cccc(/C=N/Nc4cccc(F)c4)c3)cc2)c1 [Compound 12a] | good activity | – | – |
| COc1ccc(N/N=C/c2ccc(-c3cccc(/C=N/Nc4ccc(OC)cc4)c3)cc2)cc1 [Compound 15a] | – | non-toxic | – |
| COc1ccc(N/N=C/c2ccc(-c3ccc(/C=N/Nc4ccc(OC)cc4)cc3)cc2)cc1 [Compound 15b] | good activity against the majority of the fungal strains tested | non-toxic | – |
| Fc1ccc(N/N=C/c2ccc(-c3cccc(/C=N/Nc4ccc(F)cc4)c3)cc2)cc1 [Compound 17a] | good activity against the majority of the fungal strains tested | – | non-toxic |
| C/C(=N\Nc1ccc(F)cc1)c1ccc(-c2ccc(/C(C)=N/Nc3ccc(F)cc3)cc2)cc1 [Compound 17c, 4,4′-bis((E)-1-(2-(4-fluorophenyl)hydrazono)ethyl)-1,1′-biphenyl] | – | non-toxic | – |
| Fc1ccc(N/N=C/c2ccc(-c3cccc(/C=N/Nc4ccc(F)cc4F)c3)cc2)c(F)c1 [Compound 20a] | overall antifungal activity against all the strains tested; also recorded: good activity against the majority of the fungal strains tested | non-toxic | – |
